{
  "source": "patent US9822107B2",
  "about": "“Thiazole-substituted aminoheteroaryls as spleen tyrosine kinase inhibitors” (MERCK SHARP & DOHME CORP., priority 2013, dated 2017)",
  "data": [
    {"molecular_target": "T1, recombinant human GST-SYK (Homo sapiens, UniProt P43405)", "T1 construct": "purchased Carna Biosciences 08-176", "assay": "Homogeneous Time-Resolved Fluorescence (HTRF) assay for the recombinant human Syk enzyme", "format": "biochemical", "details": "recombinant human GST-SYK 5 pM, ATP 25 μM, read-out: rhSYK Activity (IC50)", "description": "Homogeneous Time-Resolved Fluorescence (HTRF) Assay for the Recombinant Human Syk Enzyme\nA recombinant GST-hSYK fusion protein was used to measure potency of compounds to inhibit human Syk activity. […] Final volume of the reaction was 10 μL. Phosphorylation of the peptide was allowed to proceed for 45′ at room temperature. To quench the reaction and detect the phosphorylated product, 2 nM of a Europium-anti-phosphotyrosine antibody (Perkin Elmer #AD0161) and 70 nM SA-APC (Perkin-Elmer #CR130-100) were added together in 15 mM Tris pH 7.5, 40 mM EDTA, 0.01% tween 20. Final volume of the quenching solution was 10 μL.\nThe resulting HTRF signal was measured after 30 minutes on an EnVision (Perkin-Elmer) reader using a time-resolved fluorescence protocol.", "units": {"IC50": "pM"}, "values": [
      {"smiles": "CC(C)Oc1ccnc(Nc2cc3c(c(-c4cnc([C@]5(O)CC[C@@H](C(=O)O)CC5)s4)c2)OC(C)(C)C(=O)N3)n1", "note": "[Example 2.7, cis-4-[5-(2,2-dimethyl-6-{[4-(1-methylethoxy)pyrimidin-2-yl]amino}-3-oxo-3,4-dihydro-2H-1,4-benzoxazin-8-yl)-1,3-thiazol-2-yl]-4-hydroxy-cyclohexanecarboxylic acid]", "IC50": 366},
      {"smiles": "CC(O)(c1ncc(-c2cc(Nc3nccc(C(F)(F)F)n3)cc3[nH]ccc23)s1)[C@H]1CC[C@H](C(=O)O)CC1", "note": "(single isomer, unassigned) [Example 1.1, (trans)-4-((R or 5)-1-hydroxy-1-(5-(6-((4-(trifluoromethyl)pyrimidin-2-yl)amino)-1H-indol-4-yl)thiazol-2-yl)ethyl)cyclohexanecarboxylic acid]", "IC50": 500},
      {"smiles": "CC1(C)C[C@@H](C(C)(O)c2ncc(-c3cc(Nc4nccc(C(F)(F)F)n4)cc4cn[nH]c34)s2)CC[C@@H]1C(=O)O", "note": "(single isomer, unassigned) [Example 2.9, (trans)-4-((R or S)-1-hydroxy-1-[5-(5-{[4-(trifluoromethyl)pyrimidin-2-yl]amino}-1H-indazol-7-yl)-1,3-thiazol-2-yl]ethyl}-2,2-dimethylcyclohexanecarboxylic acid]", "IC50": 866},
      {"smiles": "CC(O)(c1ncc(-c2cc(Nc3nccc(C(F)(F)F)n3)cc3cn[nH]c23)s1)[C@H]1CC[C@H](C(=O)O)CC1", "note": "(single isomer, unassigned) [Example 2.10, (trans)-4-((R or S)-1-hydroxy-1-[5-(5-{[4-(trifluoromethyl)pyrimidin-2-yl]amino}-1H-indazol-7-yl)-1,3-thiazol-2-yl]ethyl}cyclohexanecarboxylic acid]", "IC50": 114},
      {"smiles": "C[C@](O)(c1ncc(-c2cc(Nc3nccc(C(F)(F)F)n3)cc3[nH]ncc23)s1)C1CCC(C(=O)O)CC1", "note": "(single isomer, unassigned) [Example 2.11, (trans)-4-((R or S)-(1-hydroxy-1-(5-(6-((4-(trifluoromethyl)pyrimidin-2-yl)amino)-1H-indazol-4-yl)thiazol-2-yl)ethyl)cyclohexanecarboxylic acid]", "IC50": 500},
      {"smiles": "CC(O)(c1ncc(-c2cc(Nc3nccc(C(F)(F)F)n3)cc3[nH]cnc23)s1)[C@H]1CC[C@H](C(=O)O)CC1", "note": "(single isomer, unassigned) [Example 2.12, (trans)-4-((R or S)-1-hydroxy-1-(5-(6-((4-(trifluoromethyl)pyrimidin-2-yl)amino)-1H-benzo[d]imidazol-4-yl)thiazol-2-yl)ethyl)cyclohexanecarboxylic acid]", "IC50": 500},
      {"smiles": "CC1(C)C[C@@](O)(c2ncc(-c3c[nH]c4cc(Nc5nccc(C(F)(F)F)n5)ccc34)s2)CC[C@@H]1C(=O)O", "note": "(single isomer, unassigned) [Example 1.7, (1S,4R or 1R,4S)-4-hydroxy-2,2-dimethyl-4-(5-(6-((4-(trifluoromethyl)pyrimidin-2-yl)amino)-1H-indol-3-yl)thiazol-2-yl)cyclohexanecarboxylic acid]", "IC50": 49000},
      {"smiles": "CC1(C)Oc2c(cc(Nc3nccc(C(F)(F)F)n3)cc2-c2cnc(C(C)(O)C(F)(F)F)s2)NC1=O", "note": "(stereo not shown) [Example 2.5, 2,2-dimethyl-8-[2-(2,2,2-trifluoro-1-hydroxy-1-methylethyl)-1,3-thiazol-5-yl]-6-{[4-(trifluoromethyl)pyrimidin-2-yl]amino}-2H-1,4-benzoxazin-3(4H)-one]", "IC50": 35800},
      {"smiles": "O=C(O)[C@H]1CC[C@](O)(c2ncc(-c3c[nH]c4ccc(Nc5nccc(C(F)F)n5)cc34)s2)CC1", "note": "[Example 1.12, cis 4-(5-(5-((4-(difluoromethyl)pyrimidin-2-yl)amino)-1H-indol-3-yl)thiazol-2-yl)-4-hydroxy-cyclohexanecarboxylic acid]", "IC50": 500},
      {"smiles": "CC1(C)C[C@@](O)(c2ncc(-c3cc(Nc4nccc(C(F)(F)F)n4)cc4[nH]ccc34)s2)CC[C@@H]1C(=O)O", "note": "(single isomer, unassigned) [Example 1.3, (1S,4R or 1R,4S)-4-hydroxy-2,2-dimethyl-4-[5-(6-{[4-(trifluoromethyl)pyrimidin-2-yl]amino}-1H-indol-4-yl)-1,3-thiazol-2-yl]cyclohexane-carboxylic acid]", "IC50": 60},
      {"smiles": "CC1(C)Oc2c(cc(Nc3nccc(-c4c[nH]nn4)n3)cc2-c2cnc([C@]3(O)CC[C@@H](C(=O)O)CC3)s2)NC1=O", "note": "[Example 2.1, (cis)-4-(5-(6-((4-(1H-1,2,3-Triazol-4-yl)pyrimidin-2-yl)amino)-2,2-dimethyl-3-oxo-3,4-dihydro-2H-benzo[b][1,4]oxazin-8-yl)thiazol-2-yl)-4-hydroxycyclohexanecarboxylic acid]", "IC50": 300},
      {"smiles": "CC1(C)Oc2c(cc(Nc3nccc(C(F)(F)F)n3)cc2-c2cnc(C3(O)CCC3)s2)NC1=O", "note": "[Example 2.2, 8-[2-(1-hydroxycyclobutyl)-1,3-thiazol-5-yl]-2,2-dimethyl-6-{[4-(trifluoromethyl)pyrimidin-2-yl]amino}-2H-1,4-benzoxazin-3(4H)-one]", "IC50": 13200},
      {"smiles": "CC1(C)C[C@@](O)(c2ncc(-c3ccnc4cc(Nc5nccc(C(F)(F)F)n5)ccc34)s2)CC[C@@H]1C(=O)O", "note": "(single isomer, unassigned) [Example 1.5, (1S,4R or 1R,4S)-4-hydroxy-2,2-dimethyl-4-(5-(7-((4-(trifluoromethyl)pyrimidin-2-yl)amino)quinolin-4-yl)thiazol-2-yl)cyclohexanecarboxylic acid]", "IC50": 63200},
      {"smiles": "O=c1[nH]c2cc(Nc3nccc(C(F)(F)F)n3)cc(-c3cnc(C4(O)CCC4)s3)c2[nH]1", "note": "[Example 2.4, 4-[2-(1-hydroxycyclobutyl)-1,3-thiazol-5-yl]-6-{[4-(trifluoromethyl)pyrimidin-2-yl]amino}-1,3-dihydro-2H-benzimidazol-2-one]", "IC50": 10100},
      {"smiles": "CCOC(=O)[C@H]1CC[C@](O)(c2ncc(-c3cc(Nc4nccc(OC(C)C)n4)cc4c3OC(C)(C)C(=O)N4)s2)CC1", "note": "[Example 2.6, ethyl cis-4-[5-(2,2-dimethyl-6-{[4-(1-methylethoxy)pyrimidin-2-yl]amino}-3-oxo-3,4-dihydro-2H-1,4-benzoxazin-8-yl)-1,3-thiazol-2-yl]-4-hydroxy-cyclohexanecarboxylate]", "IC50": 7100},
      {"smiles": "Cn1ccc2c(-c3cnc([C@@]4(O)CC[C@H](C(=O)O)C(C)(C)C4)s3)cc(Nc3nccc(C(F)(F)F)n3)cc21", "note": "(single isomer, unassigned) [Example 1.4, (1S,4R or 1R,4S)-4-hydroxy-2,2-dimethyl-4-[5-(1-methyl-6-{[4-(trifluoromethyl)pyrimidin-2-yl]amino}-1H-indol-4-yl)-1,3-thiazol-2-yl]cyclohexane-carboxylic acid]", "IC50": 477},
      {"smiles": "O=C(O)[C@H]1CC[C@](O)(c2ncc(-c3n[nH]c4ccc(Nc5nccc(C(F)(F)F)n5)cc34)s2)CC1", "note": "[Example 1.11]", "IC50": 500},
      {"smiles": "O=C(O)[C@H]1CC[C@](O)(c2ncc(-c3c[nH]c4ccc(Nc5nccc(C(F)(F)F)n5)cc34)s2)CC1", "note": "[Example 1.8]", "IC50": 500},
      {"smiles": "CC1(C)C[C@@](O)(c2ncc(-c3cc(Nc4nccc(C(F)(F)F)n4)cc4cn[nH]c34)s2)CC[C@@H]1C(=O)O", "note": "(single isomer, unassigned) [Example 2.8]", "IC50": 552},
      {"smiles": "CC(O)(c1ncc(-c2ccnc3cc(Nc4nccc(C(F)(F)F)n4)ccc23)s1)[C@H]1CC[C@H](C(=O)O)CC1", "note": "(single isomer, unassigned) [Example 1.6]", "IC50": 61600},
      {"smiles": "CC(O)(c1ncc(-c2c[nH]c3cc(Nc4nccc(C(F)(F)F)n4)ccc23)s1)[C@H]1CC[C@H](C(=O)O)CC1", "note": "(single isomer, unassigned) [Example 1.9, (trans)-4-((R or S)-1-hydroxy-1-(5-(6-((4-(trifluoromethyl)pyrimidin-2-yl)amino)-1H-indol-3-yl)thiazol-2-yl)ethyl) cyclohexanecarboxylic acid]", "IC50": 39900},
      {"smiles": "OC1(c2ncc(-c3cc(Nc4nccc(C(F)(F)F)n4)cc4[nH]ccc34)s2)CCC1", "note": "[Example 1.2, 1-[5-(6-{[4-(trifluoromethyl)pyrimidin-2-yl]amino}-1H-indol-4-yl)-1,3-thiazol-2-yl]cyclobutanol]", "IC50": 10400}
    ]},
    {"system": "PGD2", "assay": "not given", "details": "dosed intranasally, phase I/II study, allergic rhinitis; cited from earlier work", "values": [
      {"smiles": "Oc1cccc(Nc2ncc(F)c(Nc3cccc(O)c3)n2)c1", "note": "[Example R112]", "clinical safety": "safe across a range of indicators", "decrease in PGD2": "statistically significant decrease"}
    ]},
    {"system": "not given", "assay": "not given", "details": "phase II clinical trial, allergic rhinitis; cited from earlier work", "values": [
      {"smiles": "Oc1cccc(Nc2ncc(F)c(Nc3cccc(O)c3)n2)c1", "note": "[Example R112]", "efficacy versus placebo": "lack of efficacy versus placebo"}
    ]}
  ]
}
